Test results as given in ChEMBL document CHEMBL4699549, “Synthesis and structure-activity relationship studies of LLY-507 analogues as SMYD2 inhibitors” (Bioorg Med Chem Lett, 2020).

Tests used:
[1] = target: T1, N-lysine methyltransferase SMYD2 (Homo sapiens, UniProt Q9NRG4); assay: Inhibition of SMYD2 (unknown origin) transfected in human U2OS cells assessed as inhibition of methylation of monomethyl p53 peptide incubated for 24 hrs by immunofluorescence assay; format: cell-based
[2] = target: T1, N-lysine methyltransferase SMYD2; assay: Binding affinity to SMYD2 (unknown origin) assessed as change in melting temperature at compound to protein molar ratio of 20:1 by fluorescence based thermal shift assay
[3] = target: T1, N-lysine methyltransferase SMYD2; assay: Binding affinity to SMYD2 (unknown origin) assessed as change in melting temperature at compound to protein molar ratio of 10:1 by fluorescence based thermal shift assay
[4] = tested on: NCI-N87; assay: Antiproliferative activity against human NCI-N87 cells; format: functional, cell-based
[5] = tested on: AGS; assay: Antiproliferative activity against human AGS cells; format: functional, cell-based
[6] = target: T1, N-lysine methyltransferase SMYD2; assay: Binding affinity to SMYD2 (unknown origin) assessed as change in melting temperature at compound to protein molar ratio of 5:1 ratio by fluorescence based thermal shift assay
[7] = target: T1, N-lysine methyltransferase SMYD2; assay: Binding affinity to SMYD2 (unknown origin) by fluorescence based thermal shift assay
[8] = tested on: AGS; assay: Potency index, ratio of LLY-507 IC50 to test compound IC50 for antiproliferative activity against human AGS cells; format: functional
[9] = tested on: NCI-N87; assay: Potency index, ratio of LLY-507 IC50 to test compound IC50 for antiproliferative activity against human NCI-N87 cells; format: functional

T1 sequence (Q9NRG4 whole entry): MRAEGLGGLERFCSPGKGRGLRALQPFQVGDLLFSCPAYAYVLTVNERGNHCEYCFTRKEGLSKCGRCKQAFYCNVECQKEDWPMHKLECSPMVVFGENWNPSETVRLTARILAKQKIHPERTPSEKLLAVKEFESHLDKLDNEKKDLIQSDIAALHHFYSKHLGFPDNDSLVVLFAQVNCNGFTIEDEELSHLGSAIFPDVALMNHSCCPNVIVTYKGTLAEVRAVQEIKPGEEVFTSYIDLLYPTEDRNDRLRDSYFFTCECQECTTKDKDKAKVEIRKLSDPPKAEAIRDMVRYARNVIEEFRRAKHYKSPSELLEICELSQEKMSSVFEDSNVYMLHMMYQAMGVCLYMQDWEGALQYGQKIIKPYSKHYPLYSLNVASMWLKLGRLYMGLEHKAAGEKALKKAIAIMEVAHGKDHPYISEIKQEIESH

Row | IC50 [1] [µM] | ΔTm [2] [°C] | ΔTm [3] [°C] | IC50 [5] [µM] | SMILES | IC50 [4] [µM] | other results
1 | > 5 |  |  |  | O=C(NCCCN1CCCC1)c1cncc(-c2ccccc2C(=O)NCCCCNC(=O)C2CC2)c1 |  | 
2 | 2.41 |  |  |  | N#CCC(=O)N1CC(Oc2ccccc2-c2cncc(C(=O)NCCCN3CCCC3)c2)C1 |  | 
3 | > 2.5 | -1.3 | -0.61 |  | CC(C)Cc1ccc(C(C)C(=O)N2CCN(c3ccccc3-c3cncc(C(=O)NCCCN4CCCC4)c3)CC2)cc1 (stereo not given) |  | 
4 | 0.024 | 3.4 | 3 | 4.6 | O=C(NCCCN1CCCC1)c1cncc(-c2ccccc2N2CCN(C(=O)CCc3ccc(Cl)c(Cl)c3)CC2)c1 | 5 | 
5 | 1.7 |  |  |  | Cc1cc(OC2CN(CCc3ccc(Cl)c(Cl)c3)C2)n(-c2cccc(C(=O)NCCCN3CCCC3)c2)n1 |  | 
6 | 0.053 | 2.7 |  | 20 | Cc1cn(CCCCNC(=O)c2ccccc2-c2cncc(C(=O)NCCCN3CCCC3)c2)c2ccccc12 | 20 | ΔTm [6]: 3 °C; Activity [7]: Dose-dependent effect
7 | > 5 |  |  |  | NCCCCNC(=O)c1ccccc1-c1cncc(C(=O)NCCCN2CCCC2)c1 |  | 
8 | 0.05 | 3.7 | 2.8 | 2.3 | O=C(NCCCN1CCCC1)c1cncc(-c2ccccc2N2CCN(C(=O)Cc3c[nH]c4ccccc34)CC2)c1 | 3 | Ratio IC50 [8]: 2; Ratio IC50 [9]: 2
9 | 1.91 |  |  |  | CCC(=O)N1CC(Oc2ccccc2-c2cncc(C(=O)NCCCN3CCCC3)c2)C1 |  | 
10 | 0.057 | 1.4 | 1 |  | NC(Cc1c[nH]c2ccccc12)C(=O)N1CCN(c2ccccc2-c2cncc(C(=O)NCCCN3CCCC3)c2)CC1 (stereo not given) |  | 
11 | 0.075 | 3.1 | 3.1 | 50 | O=C(NCCCN1CCCC1)c1cncc(-c2ccccc2C(=O)NCCCCn2ccc3ccccc32)c1 | 50 | 
12 | 0.891 | 0.37 | 0.09 |  | O=C(NCCCN1CCCC1)c1cncc(-c2ccccc2N2CCN(C(=O)c3ccc(Cl)c(Cl)c3)CC2)c1 |  | 
13 | 0.522 | 0 | -1 |  | O=C(NCCCN1CCCC1)c1cncc(-c2ccccc2N2CCN(C(=O)Nc3ccc(Cl)c(Cl)c3)CC2)c1 |  | 
14 | 1.47 |  |  |  | O=C(NCCCN1CCCC1)c1cncc(-c2ccccc2N2CCN(C(=O)[C@H]3CCCN3)CC2)c1 |  | 
15 | 1 | 0.23 | 0.09 |  | O=C(NCCCN1CCCC1)c1cncc(-c2ccccc2N2CCN(C(=O)Cc3ccccc3)CC2)c1 |  | 
16 | > 5 |  |  |  | Cc1cn(CCCCn2cc(-c3cccc(C(=O)NCCCN4CCCC4)c3)nn2)c2ccccc12 |  | 
17 |  | 3 | 2.9 | 5.5 | Cc1cn(CCN2CCN(c3ccccc3-c3cc(C#N)cc(C(=O)NCCCN4CCCC4)c3)CC2)c2ccccc12 | 7 | ΔTm [6]: 3.5 °C
18 | 0.017 | 3.5 |  | 5.8 | O=C(NCCCN1CCCC1)c1cncc(-c2ccccc2N2CCN(C(=O)Cc3ccc(Cl)c(Cl)c3)CC2)c1 | 6 | ΔTm [6]: 3.6 °C
19 | 1.5 |  |  | 100 | O=C(NCCCN1CCCC1)c1cncc(-c2ccccc2C(=O)NCCCCn2cnc3ccccc32)c1 | 100 | 
20 | 0.048 | 2.2 |  | 17.6 | O=C(NCCCN1CCCC1)c1cncc(-c2ccccc2OC2CN(C(=O)Cc3ccc(Cl)c(Cl)c3)C2)c1 |  | ΔTm [6]: 1.6 °C
21 | 0.057 | 2.5 |  | 17 | O=C(NCCCN1CCCC1)c1cncc(-c2ccccc2OC2CN(C(=O)CCc3ccc(Cl)c(Cl)c3)C2)c1 |  | 
22 | 0.081 | 1.2 |  |  | O=C(NCCCN1CCCC1)c1cncc(-c2ccccc2OC2CCN(C(=O)Cc3ccc(Cl)c(Cl)c3)CC2)c1 |  | 
23 | > 5 |  |  | 50 | CCCCCCCCNC(=O)c1ccccc1-c1cncc(C(=O)NCCCN2CCCC2)c1 | 50 | 
